Laboratory results as given in PMC8348110, “A Novel Peptide Derived from the Transmembrane Domain of Romo1 Is a Promising Candidate for Sepsis Treatment and Multidrug-Resistant Bacteria” (International Journal of Molecular Sciences, 2021).
Values after ≈ are worked out from the molar mass of the structure shown. Residues, ends and D or L forms follow the SMILES beside them.

Columns and labels:
human erythrocytes = assay: Hemolysis assay; assay type: cell-based; conditions: 2% erythrocytes in PBS, 1 h 37 °C, absorbance 550 nm; up to / at 256 µg/mL
Method: For the hemolytic assay, mouse and human whole blood was diluted with PBS (pH 7.4) and centrifuged for 10 min at 500× g. After removing the supernatant and rinsing the pellet three times with PBS, we resuspended the erythrocytes in PBS at 2% volume. The blood solution was added to the solution of peptides with two-fold serial dilution on a 96-well plate. After incubation for an hour at 37 °C, the plate was centrifuged at 2500× g for 10 min, and the absorbance of the supernatant was measured at 550 nm. The PBS-treated sample was the negative control, and the 0.1% Triton X-100–treated sample was the positive control. To measure white blood cell toxicity, mouse and human PBMCs were freshly isolated as previously described, and 70% ethanol (positive control) or AMPR-22 was administered using two-fold diluted concentrations (0 to 256 μg/mL) for 30 min. To measure cell death, a LIVE/DEAD® fixable green dead cell stain kit (Thermo Fisher Scientific, Waltham, MS, USA) was used following the manufacturer′s instructions, and flow cytometry was performed using a FACS Canto II (BD Biosciences, CA, USA). The toxicity of AMPR-22 was compared with negative (PBS-treated) and positive controls, and the data were analyzed using FlowJo software (Tree Star, OR, USA).

[1] = tested on: Pseudomonas aeruginosa ATCC 27853; assay type: cell-based
Method: (§1) The minimum bactericidal concentration (MBC) was determined as previously described with minor modifications. Briefly, bacteria were cultured in the mid-log phase and diluted to 5 × 10^5 colony-forming unit (CFU)/mL in 10 mM sodium phosphate buffer (pH 7.4) with a 1% volume of TS broth. They were incubated for 1 h with various peptides which were two-fold diluted serially from 64 μg/mL to 0 μg/mL concentrations in a 96-well plate. The samples were inoculated TS agar plate and incubated overnight at 37 °C. The value of MBC was determined at the lowest concentrations at which no colonies were identified.
(§2) We used the CFU counting method to measure antibacterial activity, with all bacteria cultured to the mid-log phase in an appropriate broth medium. Bacterial CFUs were counted after overnight culture at 37 °C on TS or LB agar plates. The MBC value and antibacterial activity in blood components were determined as previously described. Mouse and human whole blood were collected and diluted with PBS (pH 7.4) to measure the ex vivo antibacterial activity of AMPR-22. For that test, AMPR-22 (10 μg) was added to each whole blood solution and incubated at 37 °C with shaking at 200 rpm. At each time point, it was incubated with bacteria (1 × 10^3 CFU) for 30 min. Each sample was inoculated on an LB agar plate, and CFU counting was performed. To measure the in vivo activity of AMPR-22, 1 × 10^8 CFU of bacteria were injected into BALB/c mice, and an hour later, 10 mg/kg of the test peptides were injected. Blood samples were collected by tail cut, serially diluted with PBS (pH 7.4), and inoculated on LB-agar plates, followed by CFU counting. To estimate the functional half-life of AMPR-22, 40 mg/kg of each tested peptide were injected into mice. Whole blood sampling was performed by cardiac puncture, and the plasma was isolated by centrifugation (2000× g, 15 min). The isolated plasma was incubated with bacteria (1 × 10^3 CFU) for an hour, and then the CFU counting method was performed.

[2] = tested on: Staphylococcus aureus ATCC 29213; assay type: cell-based
Method: as §1, §2

[3] = tested on: Streptococcus pneumoniae NCCP 14585; assay type: cell-based; conditions: NCCP 14585, 1 h
Method: as §1, §2

[4] = tested on: Methicillin-resistant S. aureus (MRSA) ATCC 33591; assay type: cell-based, Staphylococcus aureus; conditions: Table 2; ATCC 33591; modified MBC
Method: as §1, §2

[5] = tested on: Vancomycin-resistant S. aureus NCCP 15872; assay type: cell-based, Staphylococcus aureus; conditions: Vancomycin-resistant NCCP 15872, 1 h
Method: as §1, §2

[6] = tested on: Carbapenem-resistant P. aeruginosa (CRPA), clinical isolate; assay type: cell-based, Pseudomonas aeruginosa; conditions: 1 h
Description: Acinetobacter baumannii (ATCC 19606), B. subtilis (ATCC 6633), E. aerogenes (ATCC 13048), E. coli (ATCC 25922), E. faecalis (ATCC 19433), E. faecium (ATCC 19434), K. pneumoniae (ATCC 13883), P. aeruginosa (ATCC 27853), S. aureus (ATCC 29213), S. sindenensis (ATCC 23963), and MRSA (ATCC 33591) were purchased from the American Type Culture Collection (ATCC; Gaithersburg, MD, USA). Streptococcus pneumoniae (NCCP 14585), vancomycin-resistant E. faecium (NCCP 11522), and vancomycin-resistant S. aureus (NCCP 15872) were purchased from the National Culture Collection for Pathogens (NCCP; Cheongju, Korea). The isolation and use of carbapenem-resistant bacterial strains from a patient were approved (2015AN0129) by the Institutional Review Board (IRB) of Korea University Hospital. CRPA, CRKP, and CRAB were clinically isolated in Korea University Hospital (Seoul, Korea). CRPA was confirmed to be resistant to piperacillin, piperacillin-tazobactam, ceftazidime, imipenem, meropenem, gentamicin, amikacin, and ciprofloxacin. CRAB was confirmed to be resistant to piperacillin, piperacillin-tazobactam, cefepime, ceftazidime, imipenem, meropenem, gentamicin, amikacin, and ciprofloxacin. CRKP was confirmed to be resistant to piperacillin-tazobactam, cefepime, ceftazidime, imipenem, gentamicin, and ciprofloxacin. All strains were stored at –80 °C in 50% glycerol and 50% Luria-Bertani (LB) or tryptic soy (TS) broth, grown on LB or TS plates, and aerated at 37 °C.
as §1, §2

[7] = tested on: Acinetobacter baumannii ATCC 19606; assay: Modified MBC determination; assay type: cell-based; conditions: Table 2
Method: as §1, §2

[8] = tested on: Bacillus subtilis ATCC 6633; assay: Modified MBC determination; assay type: cell-based; conditions: Table 2
Method: as §1, §2

[9] = tested on: Enterobacter aerogenes ATCC 13048; assay: Modified MBC determination; assay type: cell-based; conditions: Table 2
Method: as §1, §2

[10] = tested on: Enterococcus faecalis ATCC 19433; assay: Modified MBC determination; assay type: cell-based; conditions: Table 2
Method: as §1, §2

[11] = tested on: Enterococcus faecium ATCC 19434; assay: Modified MBC determination; assay type: cell-based; conditions: Table 2
Method: as §1, §2

[12] = tested on: Escherichia coli ATCC 25922; assay: Modified MBC determination; assay type: cell-based; conditions: Table 2
Method: as §1, §2

[13] = tested on: Klebsiella pneumoniae ATCC 13883; assay: Modified MBC determination; assay type: cell-based; conditions: Table 2
Method: as §1, §2

[14] = tested on: Streptomyces sindenensis ATCC 23963; assay: Modified MBC determination; assay type: cell-based; conditions: Table 2
Method: as §1, §2

[15] = tested on: Carbapenem-resistant A. baumannii, clinical isolate; assay type: cell-based, Acinetobacter baumannii; conditions: 1 h
Description: (§3) Acinetobacter baumannii (ATCC 19606), B. subtilis (ATCC 6633), E. aerogenes (ATCC 13048), E. coli (ATCC 25922), E. faecalis (ATCC 19433), E. faecium (ATCC 19434), K. pneumoniae (ATCC 13883), P. aeruginosa (ATCC 27853), S. aureus (ATCC 29213), S. sindenensis (ATCC 23963), and MRSA (ATCC 33591) were purchased from the American Type Culture Collection (ATCC; Gaithersburg, MD, USA). Streptococcus pneumoniae (NCCP 14585), vancomycin-resistant E. faecium (NCCP 11522), and vancomycin-resistant S. aureus (NCCP 15872) were purchased from the National Culture Collection for Pathogens (NCCP; Cheongju, Korea). The isolation and use of carbapenem-resistant bacterial strains from a patient were approved (2015AN0129) by the Institutional Review Board (IRB) of Korea University Hospital. […]
(§4) The minimum bactericidal concentration (MBC) was determined as previously described with minor modifications. […] The value of MBC was determined at the lowest concentrations at which no colonies were identified.
(§5) We used the CFU counting method to measure antibacterial activity, with all bacteria cultured to the mid-log phase in an appropriate broth medium. Bacterial CFUs were counted after overnight culture at 37 °C on TS or LB agar plates. The MBC value and antibacterial activity in blood components were determined as previously described. […]

[16] = tested on: Carbapenem-resistant K. pneumoniae, clinical isolate; assay type: cell-based, Klebsiella pneumoniae; conditions: 1 h
Description: as §3, §4, §5

[17] = tested on: Vancomycin-resistant E. faecium NCCP 11522; assay type: cell-based, Enterococcus faecium; conditions: Vancomycin-resistant NCCP 11522, 1 h
Method: as §1
We used the CFU counting method to measure antibacterial activity, with all bacteria cultured to the mid-log phase in an appropriate broth medium. Bacterial CFUs were counted after overnight culture at 37 °C on TS or LB agar plates. The MBC value and antibacterial activity in blood components were determined as previously described. Mouse and human whole blood were collected and diluted with PBS (pH 7.4) to measure the ex vivo antibacterial activity of AMPR-22. For that test, AMPR-22 (10 μg) was added to each whole blood solution and incubated at 37 °C with shaking at 200 rpm. At each time point, it was incubated with bacteria (1 × 10^3 CFU) for 30 min. Each sample was inoculated on an LB agar plate, and CFU counting was performed. […]

P. aeruginosa = assay: Serial passage assay (acquisition of drug resistance); assay type: cell-based, Pseudomonas aeruginosa; conditions: sub-MBC treatment
Method: For the PI uptake assay, bacteria were cultured in the mid-log phase and diluted to 5 × 10^5 CFU/mL in PBS (pH 7.4). The peptides were treated with 40 μg/mL for 10 min, and then 10 μM PI was added and incubated for 20 min. The PI fluorescence was measured with a flow cytometric assay using a FACS Canto II (BD Biosciences, CA, USA), and the data were analyzed using FlowJo software (Tree Star, Ashland, OR, USA). NPN uptake and a membrane depolarization assay were performed as previously described, with some changes. Briefly, 1 × 10^4 CFU/mL of bacteria were place on a 96-well plate, and then 10 μM NPN or 4 μM DiSC3(5) was added, and AMPR-22 was administered. The fluorescence signal was measured for 10 min using a SpectraMax Plus 384 microplate reader (Molecular Devices, San Jose, CA, USA). For the NPN uptake assay, AMPR-22 was administered 3 min after the start of the fluorescence measurements. The ATP leakage assay was performed using a BacTiter-glo™ kit (Promega, Madison, WI, USA) and the manufacturer’s instructions with minor modifications. […] The luminescence signal was measured using a SpectraMax Plus 384 microplate reader (Molecular Devices, San Jose, CA, USA). […] Sub-MBC concentrations of peptide were administered to 1 mL of cultured cells, and then the MBC values were determined for every passage. […]

## CC[C@H](C)[C@H](NC(=O)CNC(=O)[C@H](CCSC)NC(=O)CNC(=O)[C@@H](NC(=O)[C@H](C)NC(=O)[C@H](CCSC)NC(=O)[C@H](Cc1ccccc1)NC(=O)[C@@H](NC(=O)CNC(=O)[C@H](Cc1ccccc1)NC(=O)[C@@H](NC(=O)CNC(=O)CNC(=O)[C@H](CO)NC(=O)[C@H](CCC(N)=O)NC(=O)[C@H](CCSC)NC(=O)[C@H](CCSC)NC(=O)[C@@H](NC(=O)[C@@H](N)CCCCN)[C@@H](C)O)[C@@H](C)O)[C@@H](C)O)[C@@H](C)CC)C(=O)N[C@@H](CCCNC(=N)N)C(=O)O [AMPR-11] (H-KTMMQSGGTFGTFMAIGMGIR-OH)
Human erythrocytes
  Hemolytic activity against human erythrocytes: low hemolytic activity

## CC[C@H](C)[C@H](NC(=O)CNC(=O)[C@H](CCSC)NC(=O)CNC(=O)[C@@H](NC(=O)[C@H](C)NC(=O)[C@H](CCSC)NC(=O)[C@H](Cc1ccccc1)NC(=O)[C@@H](NC(=O)CNC(=O)[C@H](Cc1ccccc1)NC(=O)[C@H](CCCCN)NC(=O)CNC(=O)CNC(=O)[C@H](CCCCN)NC(=O)[C@H](CCCCN)NC(=O)[C@H](CCSC)NC(=O)[C@H](CCSC)NC(=O)[C@H](CCCCN)NC(=O)[C@@H](N)CCCCN)[C@@H](C)O)[C@@H](C)CC)C(=O)N[C@@H](CCCNC(=N)N)C(=O)O [AMPR-21] (H-KKMMKKGGKFGTFMAIGMGIR-OH)
[1]; ATCC 27853, 1 h
  MBC Value, P. aeruginosa: 4 µg/mL (≈ 1.73 µM)
[1]; Table 2, ATCC 27853, modified MBC
  MBC Value, Pseudomonas aeruginosa: 4 µg/mL (≈ 1.73 µM)
[2]; ATCC 29213, 1 h, pH 7.4
  MBC Value, S. aureus: 8 µg/mL (≈ 3.45 µM)
[2]; Table 2, ATCC 29213, modified MBC
  MBC Value, Staphylococcus aureus: 4 µg/mL (≈ 1.73 µM)
[3]
  MBC Value, Streptococcus pneumoniae: 8 µg/mL (≈ 3.45 µM)
[4]
  MBC Value, Methicillin-resistant S. aureus: 8 µg/mL (≈ 3.45 µM)
[5]
  MBC Value, Vancomycin-resistant S. aureus: 8 µg/mL (≈ 3.45 µM)
[6]
  MBC Value, CRPA: 4 µg/mL (≈ 1.73 µM)
  MBC Value, Carbapenem-resistant P. aeruginosa: 4 µg/mL (≈ 1.73 µM)
[7]
  MBC Value, Acinetobacter baumannii: 4 µg/mL (≈ 1.73 µM)
[8]
  MBC Value, Bacillus subtilis: 2 µg/mL (≈ 0.863 µM)
[9]
  MBC Value, Enterobacter aerogenes: 4 µg/mL (≈ 1.73 µM)
[10]
  MBC Value, Enterococcus faecalis: 8 µg/mL (≈ 3.45 µM)
[11]
  MBC Value, Enterococcus faecium: 8 µg/mL (≈ 3.45 µM)
[12]
  MBC Value, Escherichia coli: 4 µg/mL (≈ 1.73 µM)
[13]
  MBC Value, Klebsiella pneumoniae: 4 µg/mL (≈ 1.73 µM)
[14]
  MBC Value, Streptomyces sindenensis: 4 µg/mL (≈ 1.73 µM)
[15]
  MBC Value, Carbapenem-resistant A. baumannii: 2 µg/mL (≈ 0.863 µM)
[16]
  MBC Value, Carbapenem-resistant K. pneumoniae: 8 µg/mL (≈ 3.45 µM)
[17]
  MBC Value, Vancomycin-resistant E. faecium: 8 µg/mL (≈ 3.45 µM)
Human erythrocytes
  Hemolytic activity against human erythrocytes: negligible hemolytic activity

## CNC(C)C1CCC(N)C(OC2C(N)CC(N)C(OC3OCC(C)(O)C(NC)C3O)C2O)O1 (stereo not drawn) [gentamicin]
P. aeruginosa
  Passages after which resistance developed: nine
P. aeruginosa; 30 passages
  Increase of the modified MBC value after 30 passages: 64 fold
